Reference: patent US12365696B2, “Small-molecule focal adhesion kinase (FAK) inhibitors” (DANA-FARBER CANCER INSTITUTE, INC., priority 2019, dated 2025)

What was measured:
Assay in all cases: KINOMEscan
Format in all cases: binding
CAMK1B = CAMK1B (Homo sapiens (Human), UniProt Q6P2M8); conditions: 10000 nM, read-out: Percent Control
CDK3 = CDK3 (Homo sapiens (Human), UniProt Q00526); conditions: CDK3, 10000 nM; read-out: Percent Control
CDK7 = CDK7 (Homo sapiens (Human), UniProt P50613); conditions: CDK7, 10000 nM; read-out: Percent Control
CHEK2 = CHEK2 (Homo sapiens (Human), UniProt O96017); conditions: CHEK2, 10000 nM; read-out: Percent Control
DDR2 = DDR2 (Homo sapiens (Human), UniProt Q16832); conditions: DDR2, 10000 nM; read-out: Percent Control
EGFR(L747-T751del, Sins) = EGFR(L747-T751del, Sins) (Homo sapiens (Human), UniProt P00533, DEL747-751/INS746S); conditions: 10000 nM, read-out: Percent Control
EPHA1 = EPHA1 (Homo sapiens (Human), UniProt P21709); conditions: EPHA1, 10000 nM; read-out: Percent Control
EPHB1 = EPHB1 (Homo sapiens (Human), UniProt P54762); conditions: EPHB1, 10000 nM; read-out: Percent Control
Chain of EPHB1 (P54762 18-984): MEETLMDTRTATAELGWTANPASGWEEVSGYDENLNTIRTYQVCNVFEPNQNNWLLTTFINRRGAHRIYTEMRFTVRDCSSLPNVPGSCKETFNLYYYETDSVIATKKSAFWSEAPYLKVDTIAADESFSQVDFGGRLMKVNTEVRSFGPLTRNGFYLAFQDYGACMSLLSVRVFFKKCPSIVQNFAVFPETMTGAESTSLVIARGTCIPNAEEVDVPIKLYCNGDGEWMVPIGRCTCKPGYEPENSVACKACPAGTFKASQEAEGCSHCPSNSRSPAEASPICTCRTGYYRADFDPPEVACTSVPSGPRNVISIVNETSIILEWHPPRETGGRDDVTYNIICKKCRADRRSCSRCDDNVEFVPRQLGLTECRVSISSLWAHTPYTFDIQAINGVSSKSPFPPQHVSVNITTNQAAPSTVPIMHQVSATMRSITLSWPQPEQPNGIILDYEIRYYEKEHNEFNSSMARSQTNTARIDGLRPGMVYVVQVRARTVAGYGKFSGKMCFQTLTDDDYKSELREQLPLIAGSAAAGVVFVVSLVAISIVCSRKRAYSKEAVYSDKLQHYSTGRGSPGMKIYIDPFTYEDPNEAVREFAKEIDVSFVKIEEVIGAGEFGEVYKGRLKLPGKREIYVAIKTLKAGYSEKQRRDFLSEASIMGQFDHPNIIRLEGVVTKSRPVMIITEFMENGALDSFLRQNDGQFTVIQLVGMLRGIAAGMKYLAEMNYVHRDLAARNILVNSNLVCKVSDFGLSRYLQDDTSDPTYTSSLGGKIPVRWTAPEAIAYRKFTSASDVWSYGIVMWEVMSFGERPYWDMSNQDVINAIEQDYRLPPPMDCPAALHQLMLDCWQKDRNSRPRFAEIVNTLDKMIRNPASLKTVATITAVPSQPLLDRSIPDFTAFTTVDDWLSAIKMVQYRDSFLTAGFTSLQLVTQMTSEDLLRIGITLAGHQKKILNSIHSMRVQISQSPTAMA

ERBB3 = ERBB3 (Homo sapiens (Human), UniProt P21860); conditions: ERBB3, 10000 nM; read-out: Percent Control
FGFR2 = FGFR2 (Homo sapiens (Human), UniProt P21802); conditions: FGFR2, 10000 nM; read-out: Percent Control
FLT3(D835H) = FLT3(D835H) (Homo sapiens (Human), UniProt P36888, D835H); conditions: 10000 nM, read-out: Percent Control
HIPK4 = HIPK4 (Homo sapiens (Human), UniProt Q8NE63); conditions: HIPK4, 10000 nM; read-out: Percent Control
KIT = KIT (Homo sapiens (Human), UniProt P10721); conditions: 10000 nM, read-out: Percent Control
KIT(V559D, T670I) = KIT(V559D, T670I) (Homo sapiens (Human), UniProt P10721, T670I/V559D); conditions: 10000 nM, read-out: Percent Control
MARK4 = MARK4 (Homo sapiens (Human), UniProt Q96L34); conditions: MARK4, 10000 nM; read-out: Percent Control
Chain of MARK4 (Q96L34 whole entry): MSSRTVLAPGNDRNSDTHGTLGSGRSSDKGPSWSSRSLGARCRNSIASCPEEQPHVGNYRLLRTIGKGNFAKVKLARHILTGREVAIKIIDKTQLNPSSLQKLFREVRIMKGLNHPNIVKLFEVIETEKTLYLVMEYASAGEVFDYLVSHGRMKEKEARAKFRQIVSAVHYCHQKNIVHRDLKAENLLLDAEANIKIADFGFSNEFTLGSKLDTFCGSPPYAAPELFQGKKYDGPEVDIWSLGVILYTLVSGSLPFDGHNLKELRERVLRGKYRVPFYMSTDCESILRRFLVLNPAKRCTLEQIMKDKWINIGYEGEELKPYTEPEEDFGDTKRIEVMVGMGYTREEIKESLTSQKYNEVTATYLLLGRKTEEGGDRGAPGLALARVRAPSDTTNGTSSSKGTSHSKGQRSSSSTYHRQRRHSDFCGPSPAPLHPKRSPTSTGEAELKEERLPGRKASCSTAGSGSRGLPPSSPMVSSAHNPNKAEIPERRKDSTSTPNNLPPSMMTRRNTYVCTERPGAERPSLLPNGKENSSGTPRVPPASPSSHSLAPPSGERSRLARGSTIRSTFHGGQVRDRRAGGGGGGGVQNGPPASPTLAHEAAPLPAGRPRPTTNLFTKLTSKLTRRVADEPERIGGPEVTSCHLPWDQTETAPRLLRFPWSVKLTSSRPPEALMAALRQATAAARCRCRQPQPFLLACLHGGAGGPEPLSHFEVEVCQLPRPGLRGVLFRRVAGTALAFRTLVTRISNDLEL

MET = MET (Homo sapiens (Human), UniProt P08581); conditions: 10000 nM, read-out: Percent Control
MKNK2 = MKNK2 (Homo sapiens (Human), UniProt Q9HBH9); conditions: MKNK2, 10000 nM; read-out: Percent Control
MLK1 = MLK1 (Homo sapiens (Human), UniProt P80192); conditions: MLK1, 10000 nM; read-out: Percent Control
MST4 = MST4 (Homo sapiens (Human), UniProt Q9P289); conditions: MST4, 10000 nM; read-out: Percent Control
PDPK1 = PDPK1 (Homo sapiens (Human), UniProt O15530); conditions: PDPK1, 10000 nM; read-out: Percent Control
Chain of PDPK1 (O15530 whole entry): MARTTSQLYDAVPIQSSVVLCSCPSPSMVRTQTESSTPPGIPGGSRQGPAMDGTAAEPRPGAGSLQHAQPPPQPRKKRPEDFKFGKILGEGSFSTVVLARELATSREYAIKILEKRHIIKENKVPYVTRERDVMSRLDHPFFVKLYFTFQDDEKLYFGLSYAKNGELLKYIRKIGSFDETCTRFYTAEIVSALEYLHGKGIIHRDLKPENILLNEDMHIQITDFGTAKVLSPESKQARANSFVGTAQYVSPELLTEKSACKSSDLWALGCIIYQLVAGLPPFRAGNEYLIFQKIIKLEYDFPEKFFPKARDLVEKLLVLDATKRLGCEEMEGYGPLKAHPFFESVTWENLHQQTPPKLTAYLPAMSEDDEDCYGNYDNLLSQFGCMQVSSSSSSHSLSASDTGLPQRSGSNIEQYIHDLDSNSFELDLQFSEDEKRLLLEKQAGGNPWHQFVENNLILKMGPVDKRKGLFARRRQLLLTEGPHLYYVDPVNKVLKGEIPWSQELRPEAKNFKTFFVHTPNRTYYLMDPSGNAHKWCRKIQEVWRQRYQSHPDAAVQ

PFTAIRE2 = PFTAIRE2 (Homo sapiens (Human), UniProt Q96Q40); conditions: PFTAIRE2, 10000 nM; read-out: Percent Control
PIK3C2G = PIK3C2G (Homo sapiens (Human), UniProt O75747); conditions: 10000 nM, read-out: Percent Control
PIK3CA = PIK3CA (Homo sapiens (Human), UniProt P42336); conditions: 10000 nM, read-out: Percent Control
Chain of PIK3CA (P42336 whole entry): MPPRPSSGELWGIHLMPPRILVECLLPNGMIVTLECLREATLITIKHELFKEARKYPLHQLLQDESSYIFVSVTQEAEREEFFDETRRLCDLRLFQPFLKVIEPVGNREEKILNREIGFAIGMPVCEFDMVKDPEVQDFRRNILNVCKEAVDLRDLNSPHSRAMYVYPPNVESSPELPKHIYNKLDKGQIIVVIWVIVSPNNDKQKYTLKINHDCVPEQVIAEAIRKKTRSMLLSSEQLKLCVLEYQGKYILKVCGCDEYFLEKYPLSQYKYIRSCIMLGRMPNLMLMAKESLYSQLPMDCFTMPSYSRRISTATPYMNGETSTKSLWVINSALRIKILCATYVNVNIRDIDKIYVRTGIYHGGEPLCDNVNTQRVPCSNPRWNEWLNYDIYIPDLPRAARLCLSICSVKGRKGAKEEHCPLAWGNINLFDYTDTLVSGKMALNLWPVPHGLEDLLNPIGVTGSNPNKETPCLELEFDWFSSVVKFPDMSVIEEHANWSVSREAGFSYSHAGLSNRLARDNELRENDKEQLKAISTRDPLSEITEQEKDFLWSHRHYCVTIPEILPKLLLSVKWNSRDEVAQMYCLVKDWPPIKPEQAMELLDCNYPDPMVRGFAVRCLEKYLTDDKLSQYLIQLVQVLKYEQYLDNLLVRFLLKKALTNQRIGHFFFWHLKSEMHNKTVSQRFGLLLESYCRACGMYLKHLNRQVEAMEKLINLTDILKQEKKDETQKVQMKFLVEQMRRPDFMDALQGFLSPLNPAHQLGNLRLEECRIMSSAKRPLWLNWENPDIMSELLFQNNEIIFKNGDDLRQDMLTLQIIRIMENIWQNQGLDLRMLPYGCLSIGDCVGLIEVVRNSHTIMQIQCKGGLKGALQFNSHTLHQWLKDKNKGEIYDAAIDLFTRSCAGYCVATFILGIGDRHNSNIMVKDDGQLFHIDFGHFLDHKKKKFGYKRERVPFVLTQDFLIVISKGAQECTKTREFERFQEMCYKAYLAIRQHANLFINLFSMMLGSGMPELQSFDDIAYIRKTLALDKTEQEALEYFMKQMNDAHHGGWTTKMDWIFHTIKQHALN

PIM3 = PIM3 (Homo sapiens (Human), UniProt Q86V86); conditions: PIM3, 10000 nM; read-out: Percent Control
PLK4 = PLK4 (Homo sapiens (Human), UniProt O00444); conditions: PLK4, 10000 nM; read-out: Percent Control
RAF1 = RAF1 (Homo sapiens (Human), UniProt P04049); conditions: RAF1, 10000 nM; read-out: Percent Control
RET(V804M) = RET(V804M) (Homo sapiens (Human), UniProt P07949, V804M); conditions: 10000 nM, read-out: Percent Control
RIOK2 = RIOK2 (Homo sapiens (Human), UniProt Q9BVS4); conditions: RIOK2, 10000 nM; read-out: Percent Control
[1] = biological target: RPS6KA4(Kin.Dom.2-C-terminal) (Homo sapiens (Human), UniProt O75676); conditions: 10000 nM, read-out: Percent Control
Chain of RPS6KA4(Kin.Dom.2-C-terminal) (O75676 411-674): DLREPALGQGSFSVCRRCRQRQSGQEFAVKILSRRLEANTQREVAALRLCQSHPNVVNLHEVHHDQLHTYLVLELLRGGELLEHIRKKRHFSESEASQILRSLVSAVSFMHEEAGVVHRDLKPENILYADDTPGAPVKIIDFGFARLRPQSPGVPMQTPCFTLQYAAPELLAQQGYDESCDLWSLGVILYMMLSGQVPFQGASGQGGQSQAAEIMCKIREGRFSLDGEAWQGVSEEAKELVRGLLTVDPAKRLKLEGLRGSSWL

SRPK2 = SRPK2 (Homo sapiens (Human), UniProt P78362); conditions: SRPK2, 10000 nM; read-out: Percent Control
STK39 = STK39 (Homo sapiens (Human), UniProt Q9UEW8); conditions: STK39, 10000 nM; read-out: Percent Control
TIE2 = TIE2 (Homo sapiens (Human), UniProt Q02763); conditions: TIE2, 10000 nM; read-out: Percent Control
Chain of TIE2 (Q02763 23-1124): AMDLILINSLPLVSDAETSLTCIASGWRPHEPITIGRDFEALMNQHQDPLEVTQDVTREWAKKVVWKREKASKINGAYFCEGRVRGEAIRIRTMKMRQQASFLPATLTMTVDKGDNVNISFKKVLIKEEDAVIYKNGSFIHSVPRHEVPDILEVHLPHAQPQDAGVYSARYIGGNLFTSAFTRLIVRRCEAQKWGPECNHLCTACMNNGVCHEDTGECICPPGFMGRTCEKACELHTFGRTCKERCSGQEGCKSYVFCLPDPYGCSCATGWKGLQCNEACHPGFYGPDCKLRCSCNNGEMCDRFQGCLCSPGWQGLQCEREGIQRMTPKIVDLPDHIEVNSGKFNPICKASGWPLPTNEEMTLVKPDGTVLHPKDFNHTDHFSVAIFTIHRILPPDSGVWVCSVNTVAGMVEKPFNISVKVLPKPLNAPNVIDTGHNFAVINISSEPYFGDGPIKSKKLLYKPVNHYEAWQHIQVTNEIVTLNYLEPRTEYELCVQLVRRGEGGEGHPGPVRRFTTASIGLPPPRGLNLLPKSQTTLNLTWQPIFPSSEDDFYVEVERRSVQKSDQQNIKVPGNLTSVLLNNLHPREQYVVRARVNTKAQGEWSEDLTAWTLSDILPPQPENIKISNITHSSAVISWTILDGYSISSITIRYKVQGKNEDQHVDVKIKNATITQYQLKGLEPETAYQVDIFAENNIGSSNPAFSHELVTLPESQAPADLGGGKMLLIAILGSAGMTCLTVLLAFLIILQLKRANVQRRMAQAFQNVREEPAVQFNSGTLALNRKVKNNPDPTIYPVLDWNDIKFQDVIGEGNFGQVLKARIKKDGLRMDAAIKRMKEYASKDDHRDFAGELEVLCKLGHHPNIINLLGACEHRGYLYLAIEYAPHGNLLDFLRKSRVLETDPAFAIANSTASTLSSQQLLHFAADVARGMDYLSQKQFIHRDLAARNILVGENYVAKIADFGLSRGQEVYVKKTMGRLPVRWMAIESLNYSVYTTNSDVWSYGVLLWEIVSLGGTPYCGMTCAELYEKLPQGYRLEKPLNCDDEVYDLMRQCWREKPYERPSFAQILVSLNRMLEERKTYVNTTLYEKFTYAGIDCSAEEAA

TNK1 = TNK1 (Homo sapiens (Human), UniProt Q13470); conditions: TNK1, 10000 nM; read-out: Percent Control

Chain of CAMK1B (Q6P2M8 whole entry): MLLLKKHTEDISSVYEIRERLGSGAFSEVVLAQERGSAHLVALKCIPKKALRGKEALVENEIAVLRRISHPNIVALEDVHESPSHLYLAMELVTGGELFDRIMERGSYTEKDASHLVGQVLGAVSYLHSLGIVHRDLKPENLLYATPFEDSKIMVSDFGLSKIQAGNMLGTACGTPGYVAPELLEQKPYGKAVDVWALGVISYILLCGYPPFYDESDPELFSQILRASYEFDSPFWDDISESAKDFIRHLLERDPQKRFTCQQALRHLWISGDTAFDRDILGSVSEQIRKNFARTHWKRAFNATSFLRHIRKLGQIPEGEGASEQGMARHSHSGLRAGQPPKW

SMILES | remaining binding at 10 µM (CAMK1B) [%] | remaining binding at 10 µM (CDK3) [%] | remaining binding at 10 µM (CDK7) [%] | remaining binding at 10 µM (CHEK2) [%] | remaining binding at 10 µM (DDR2) [%] | remaining binding at 10 µM (EGFR(L747-T751del, Sins)) [%] | remaining binding at 10 µM (EPHA1) [%] | remaining binding at 10 µM (EPHB1) [%] | remaining binding at 10 µM (ERBB3) [%] | remaining binding at 10 µM (FGFR2) [%] | remaining binding at 10 µM (FLT3(D835H)) [%] | remaining binding at 10 µM (HIPK4) [%] | remaining binding at 10 µM (KIT) [%] | remaining binding at 10 µM (KIT(V559D, T670I)) [%] | remaining binding at 10 µM (MARK4) [%] | remaining binding at 10 µM (MET) [%] | remaining binding at 10 µM (MKNK2) [%] | remaining binding at 10 µM (MLK1) [%] | remaining binding at 10 µM (MST4) [%] | remaining binding at 10 µM (PDPK1) [%] | other results
COc1cc(N2CCC(N3CCN(C)CC3)CC2)ccc1Nc1ncc2c(n1)N(C)c1sc(C)nc1C(=O)N2 [Compound 3, 6-((2-methoxy-4-(4-(4-methylpiperazin-1-yl)piperidin-1-yl)phenyl)amino)-2,4-dimethyl-4,9-dihydro-10H-pyrimido[5,4-b]thiazolo[5,4-e][1,4]diazepin-10-one] | 95 | 87 | 94 | 72 | 100 | 52 | 54 | 48 | 100 | 80 | 67 | 82 | 54 | 86 | 83 | 92 | 80 | 94 | 100 | 76 | remaining binding at 10 µM (PFTAIRE2): 86%; remaining binding at 10 µM (PIK3C2G): 69%; remaining binding at 10 µM (PIK3CA): 100%; remaining binding at 10 µM (PIM3): 70%; remaining binding at 10 µM (PLK4): 81%; remaining binding at 10 µM (RAF1): 85%; remaining binding at 10 µM (RET(V804M)): 100%; remaining binding at 10 µM (RIOK2): 82%; remaining binding at 10 µM [1]: 100%; remaining binding at 10 µM (SRPK2): 87%; remaining binding at 10 µM (STK39): 100%; remaining binding at 10 µM (TIE2): 83%; remaining binding at 10 µM (TNK1): 53%
COc1cc(N2CCC(N3CCN(C)CC3)CC2)ccc1Nc1ncc2c(n1)N(C)c1sc(C)nc1C(=O)N2C [Compound 5, 6-((2-methoxy-4-(4-(4-methylpiperazin-1-yl)piperidin-1-yl)phenyl)amino)-2,4,9-trimethyl-4,9-dihydro-10H-pyrimido[5,4-b]thiazolo[5,4-e][1,4]diazepin-10-one] | 92 | 100 | 100 | 100 | 100 | 100 | 100 | 93 | 100 | 100 | 100 | 100 | 100 | 95 | 87 | 97 | 90 | 41 | 100 | 96 | remaining binding at 10 µM (PFTAIRE2): 100%; remaining binding at 10 µM (PIK3C2G): 100%; remaining binding at 10 µM (PIK3CA): 100%; remaining binding at 10 µM (PIM3): 100%; remaining binding at 10 µM (PLK4): 19%; remaining binding at 10 µM (RAF1): 95%; remaining binding at 10 µM (RET(V804M)): 73%; remaining binding at 10 µM (RIOK2): 100%; remaining binding at 10 µM [1]: 30%; remaining binding at 10 µM (SRPK2): 89%; remaining binding at 10 µM (STK39): 77%; remaining binding at 10 µM (TIE2): 100%; remaining binding at 10 µM (TNK1): 10%
